{
  "source": "paper PMC6731340",
  "about": "“Evaluation of synergy between host and pathogen-directed therapies against intracellular Leishmania donovani” (International Journal for Parasitology: Drugs and Drug …, 2019)",
  "key": {"[1]": {"test_system": "Mouse bone marrow-derived macrophages (BMDMs)", "assay": "LDH mammalian cytotoxicity assay", "details": "50% Lethal Dose for BMDMs", "from_the_text": "(§2) Mouse bone marrow-derived macrophages (BMDMs) isolation from BALB/c mice and culture was done as described previously ([Weischenfeldt and Porse, 2008]), and approved by the Animal Care and Use Committees at UNC. A lactate dehydrogenase (LDH) assay (Thermo Fisher Scientific, Grand Island, NY) was used to determine cytotoxicity per manufacturer's directions."}, "[2]": {"test_system": "L. donovani axenic amastigotes", "assay": "Resazurin-based drug susceptibility assay on axenic amastigotes", "assay_type": "cell-based", "details": "Leishmania donovani, 72 h drug at 37 °C", "procedure": "(§1) Leishmania donovani strain (ATCC 30030; ATCC; Manassas VA) was used in all studies and grown via manufacture's specification. The promastigotes screening were performed as described previously, with few modifications ([Kulshrestha et al., 2013]). Late log-phase promastigotes (1 × 10^5 per one 96-well) were incubated with drug for 72 h at 25 °C. Resazurin was added [0.002% (w/v)], incubated for 24 h and assessed fluorometrically (ex: 544 nm/em: 590 nm; SpectraMax M2, Molecular Devices, Sunnyvale, CA). L. donovani axenic amastigotes were differentiated as described previously, with little modification ([Ephros et al., 1997]). Late log-phase promastigotes were differentiated into axenic amastigotes in a low pH (6.3) medium for 96 h at 37 °C. Fully differentiated axenic amastigotes (2 × 10^5 per one 96-well) were incubated 72 h with drug at 37 °C, and resazurin assay was then performed as indicated above."}, "[3]": {"test_system": "L. donovani intracellular amastigotes", "assay": "Image-based (Giemsa) evaluation of intracellular anti-leishmanial activity in infected BMDMs", "assay_type": "cell-based", "details": "Leishmania donovani, BMDM, 72 h, Giemsa stain", "procedure": "An image-based anti-leishmanial assay was used as described previously with slight modification ([Collier et al., 2016]). BMDMs seeded on round glass coverslips (5 × 10^5 cells per one 24-well) were allowed to adhere overnight, infected with stationary phase L. donovani promastigotes (MOI 1:10), incubated overnight, and washed (3×) with warmed serum-free media. Compounds were added, incubated for 72 h, washed (3×) with PBS, fixed with methanol and stained with Giemsa stain (1:20 in H2O). An EVOS XL (100×, Thermo Fisher Scientific) was used for imaging. L. donovani amastigotes per 100 macrophages was determined, in duplicate, and in a blinded fashion."}, "[4]": {"test_system": "L. donovani intracellular amastigotes", "assay": "Modified resazurin-based viability analysis of L. donovani in infected macrophages", "assay_type": "cell-based, Leishmania donovani", "details": "for Selectivity (LD50/IC50): LD50 macrophages / resazurin intracellular IC50; for IC50: Leishmania donovani, BMDM, infected BMDMs, 72 h", "procedure": "BMDMs (1 × 10^5 per one 96-well) infected overnight with stationary phase L. donovani promastigotes (MOI 1:10), were washed (3×) with serum free DMEM, and incubated with compounds for 72 h. Then, parasites were rescued with BMDM controlled lysis, modified from a previous report ([Kiderlen and Kaye, 1990]). In brief, cells were washed with serum-free HEPES-buffered RPMI (HEPES-RPMI; 1×), lysed (20 min) with HEPES-RPMI (100 μL/well) with 0.008% SDS (w/v), SDS neutralized with HEPES-RPMI with 17% FBS (v/v; 150 μL/well) and placed in an air-tight container (25 °C for 96 h). Resazurin [0.02% (w/v); 25 μL] was added, incubated (24 h) and was assessed fluorometrically."}, "[5]": {"test_system": "L. donovani extracellular promastigotes", "assay": "Resazurin-based drug susceptibility assay on promastigotes", "assay_type": "cell-based", "details": "Leishmania donovani, 72 h drug at 25 °C", "procedure": "as §1"}, "VL patients": {"test_system": "VL patients", "parameters": "method as in Sundar et al., 2008", "details": "AMB alone; ref Sundar et al., 2008; cited from earlier work"}, "[6]": {"test_system": "Mouse bone marrow-derived macrophages (BMDMs)", "details": "BALB/c", "from_the_text": "as §2"}, "promastigotes": {"test_system": "promastigotes", "parameters": "method as in Pan et al., 2012", "details": "ref Pan et al., 2012; read-out: IC50, direct activity against promastigotes; cited from earlier work"}, "[7]": {"test_system": "intracellular L. mexicana", "parameters": "method as in Pan et al., 2012", "details": "ref Pan et al., 2012; read-out: IC50, anti-leishmanial activity against intracellular L. mexicana; cited from earlier work"}, "L. donovani amastigotes": {"test_system": "L. donovani amastigotes", "parameters": "method as in De Muylder et al., 2011", "details": "intracellular vs axenically grown amastigotes; ref De Muylder et al., 2011; cited from earlier work"}, "[8]": {"parameters": "method as in earlier work", "details": "ref Mishra and Singh, 2013; Perez-Victoria et al., 2006; Seifert et al., 2007; cited from earlier work"}},
  "note": "Read-outs that look alike come from different tables or passages of the source.",
  "data": [
    {"smiles": "NC[C@@H]1O[C@H](O[C@H]2[C@@H](O)[C@H](O[C@@H]3[C@@H](O)[C@H](N)C[C@H](N)[C@H]3O[C@H]3O[C@H](CO)[C@@H](O)[C@H](O)[C@H]3N)O[C@@H]2CO)[C@H](N)[C@@H](O)[C@@H]1O", "note": "[Paromomycin, paromomycin]", "values": [
      {"measurement": "Cytotoxicity LD50", "setting": "[1]", "result": ">800", "unit": "µM"},
      {"measurement": "IC50", "setting": "[2]", "result": "22 ± 4.24", "unit": "µM"},
      {"measurement": "IC50", "setting": "[3]", "result": "15.2 ± 4.67", "unit": "µM"},
      {"measurement": "Selectivity (LD50/IC50)", "setting": "[4]", "result": ">68"},
      {"measurement": "IC50", "setting": "[4]", "result": "11.6 ± 0.42", "unit": "µM"},
      {"measurement": "IC50", "setting": "[5]", "result": "59 ± 5.66", "unit": "µM"}
    ]},
    {"smiles": "C[C@@H]1[C@H](O)[C@@H](C)/C=C/C=C/C=C/C=C/C=C/C=C/C=C/[C@H](O[C@@H]2O[C@H](C)[C@@H](O)[C@H](N)[C@@H]2O)C[C@@H]2O[C@](O)(C[C@@H](O)C[C@@H](O)[C@H](O)CC[C@@H](O)C[C@@H](O)CC(=O)O[C@H]1C)C[C@H](O)[C@H]2C(=O)O", "note": "[Amphotericin B, amphotericin B]", "values": [
      {"measurement": "VL patients cured", "setting": "VL patients", "result": 91, "unit": "%"},
      {"measurement": "Cytotoxicity LD50", "setting": "[6]", "result": "38.5 ± 4.95", "unit": "µM"},
      {"measurement": "IC50", "setting": "[2]", "result": "0.049 ± 0.005", "unit": "µM"},
      {"measurement": "IC50", "setting": "[3]", "result": "0.024 ± 0.001", "unit": "µM"},
      {"measurement": "Selectivity (LD50/IC50)", "setting": "[4]", "result": 1167},
      {"measurement": "IC50", "setting": "[4]", "result": "0.033 ± 0.011", "unit": "µM"},
      {"measurement": "IC50", "setting": "[5]", "result": "0.047 ± 0.004", "unit": "µM"}
    ]},
    {"smiles": "CC(=O)C1=CC[C@H]2[C@@H]3CCC4=CC(=O)CC[C@]4(C)[C@H]3C[C@@H](O)[C@]12C", "note": "[DNER, 6,7-dihydroneridienone]", "values": [
      {"measurement": "IC50", "setting": "promastigotes", "result": 9200, "unit": "nM"},
      {"measurement": "IC50", "setting": "[7]", "result": 1400, "unit": "nM"}
    ]},
    {"smiles": "NCC(=O)Nc1ccc(-n2nc(C(F)(F)F)cc2-c2ccc3c(ccc4ccccc43)c2)cc1", "note": "[AR-12]", "values": [
      {"measurement": "Cytotoxicity LD50", "setting": "[1]", "result": "11.1 ± 2.5", "unit": "µM"},
      {"measurement": "IC50", "setting": "[2]", "result": "3.45 ± 0.07", "unit": "µM"},
      {"measurement": "IC50", "setting": "[3]", "result": "1.18 ± 0.18", "unit": "µM"},
      {"measurement": "Selectivity (LD50/IC50)", "setting": "[4]", "result": 8},
      {"measurement": "IC50", "setting": "[4]", "result": "1.44 ± 0.08", "unit": "µM"},
      {"measurement": "IC50", "setting": "[5]", "result": "3.3 ± 0.42", "unit": "µM"}
    ]},
    {"smiles": "C=CCN1CC[C@]23c4c5ccc(O)c4O[C@H]2/C(=N/N=C2\\CC[C@@]4(O)[C@H]6Cc7ccc(O)c8c7[C@@]4(CCN6CC=C)[C@H]2O8)CC[C@@]3(O)[C@H]1C5", "note": "[naloxonazine]", "values": [
      {"measurement": "anti-leishmanial activity", "setting": "L. donovani amastigotes", "result": "found only against intracellular L. donovani amastigotes"}
    ]},
    {"smiles": "CCCCCCCCCCCCCCCCOP(=O)([O-])OCC[N+](C)(C)C", "note": "[Miltefosine, miltefosine]", "values": [
      {"measurement": "Cytotoxicity LD50", "setting": "[1]", "result": "62.5 ± 4.95", "unit": "µM"},
      {"measurement": "IC50", "setting": "[3]", "result": "1.1 ± 0.37", "unit": "µM"},
      {"measurement": "IC50", "setting": "[4]", "result": "0.55 ± 0.15", "unit": "µM"},
      {"measurement": "IC50", "setting": "[5]", "result": "5.4 ± 0.42", "unit": "µM"},
      {"measurement": "drug half-life", "setting": "[8]", "result": "~150", "unit": "h"}
    ]}
  ]
}
